Drawing on ChEMBL document CHEMBL3991601, “The target landscape of clinical kinase drugs” (Science, 2017), this text covers Kd for 13 compounds.

Calls of active or inactive are those of the source. Rule as the data show it, for most assays here: actives have a measured Kd and inactives only a lower limit.

The target of experiment [1] is Epidermal growth factor receptor (Homo sapiens, UniProt P00533).
Experiment [2] deals with T1, Serine/threonine-protein kinase TBK1 (Homo sapiens, UniProt Q9UHD2).
T1 sequence (Q9UHD2 whole entry): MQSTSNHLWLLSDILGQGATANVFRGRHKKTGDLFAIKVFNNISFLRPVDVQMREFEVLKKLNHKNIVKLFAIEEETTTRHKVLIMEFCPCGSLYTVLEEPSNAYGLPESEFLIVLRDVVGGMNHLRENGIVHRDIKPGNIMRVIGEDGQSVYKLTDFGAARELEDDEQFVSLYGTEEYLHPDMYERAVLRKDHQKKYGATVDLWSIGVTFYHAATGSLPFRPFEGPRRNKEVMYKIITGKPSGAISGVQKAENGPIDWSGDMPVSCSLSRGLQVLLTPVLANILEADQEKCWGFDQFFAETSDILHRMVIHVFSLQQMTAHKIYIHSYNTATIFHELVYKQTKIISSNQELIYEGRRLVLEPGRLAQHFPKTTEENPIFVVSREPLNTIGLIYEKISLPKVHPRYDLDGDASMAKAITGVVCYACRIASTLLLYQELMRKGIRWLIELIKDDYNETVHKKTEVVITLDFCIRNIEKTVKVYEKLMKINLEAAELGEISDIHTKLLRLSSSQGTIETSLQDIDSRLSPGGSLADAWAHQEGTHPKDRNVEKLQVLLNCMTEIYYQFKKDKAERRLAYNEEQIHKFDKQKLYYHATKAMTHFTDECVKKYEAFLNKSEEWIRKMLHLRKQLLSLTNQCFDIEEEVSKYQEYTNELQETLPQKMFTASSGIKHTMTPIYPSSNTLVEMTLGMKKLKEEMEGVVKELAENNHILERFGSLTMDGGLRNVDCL

The target in experiment [3] is T2, STE20-related kinase adapter protein alpha (Homo sapiens, UniProt Q7RTN6).
T2 sequence (Q7RTN6 whole entry): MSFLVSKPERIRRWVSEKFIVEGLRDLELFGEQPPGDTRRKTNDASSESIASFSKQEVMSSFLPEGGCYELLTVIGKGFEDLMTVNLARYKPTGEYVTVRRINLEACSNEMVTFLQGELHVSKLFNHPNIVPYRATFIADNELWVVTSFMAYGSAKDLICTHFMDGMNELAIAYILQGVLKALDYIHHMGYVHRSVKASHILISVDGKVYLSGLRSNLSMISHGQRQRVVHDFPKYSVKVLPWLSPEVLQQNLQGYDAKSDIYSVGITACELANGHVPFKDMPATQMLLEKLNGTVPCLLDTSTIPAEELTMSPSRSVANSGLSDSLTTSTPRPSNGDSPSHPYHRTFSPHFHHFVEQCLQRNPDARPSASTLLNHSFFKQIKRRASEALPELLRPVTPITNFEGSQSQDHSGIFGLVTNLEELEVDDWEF

Experiment [4] deals with Myosin light chain kinase, smooth muscle (Homo sapiens, UniProt Q15746).
Chain of Myosin light chain kinase, smooth muscle (Q15746 whole entry, the tested form may be a part): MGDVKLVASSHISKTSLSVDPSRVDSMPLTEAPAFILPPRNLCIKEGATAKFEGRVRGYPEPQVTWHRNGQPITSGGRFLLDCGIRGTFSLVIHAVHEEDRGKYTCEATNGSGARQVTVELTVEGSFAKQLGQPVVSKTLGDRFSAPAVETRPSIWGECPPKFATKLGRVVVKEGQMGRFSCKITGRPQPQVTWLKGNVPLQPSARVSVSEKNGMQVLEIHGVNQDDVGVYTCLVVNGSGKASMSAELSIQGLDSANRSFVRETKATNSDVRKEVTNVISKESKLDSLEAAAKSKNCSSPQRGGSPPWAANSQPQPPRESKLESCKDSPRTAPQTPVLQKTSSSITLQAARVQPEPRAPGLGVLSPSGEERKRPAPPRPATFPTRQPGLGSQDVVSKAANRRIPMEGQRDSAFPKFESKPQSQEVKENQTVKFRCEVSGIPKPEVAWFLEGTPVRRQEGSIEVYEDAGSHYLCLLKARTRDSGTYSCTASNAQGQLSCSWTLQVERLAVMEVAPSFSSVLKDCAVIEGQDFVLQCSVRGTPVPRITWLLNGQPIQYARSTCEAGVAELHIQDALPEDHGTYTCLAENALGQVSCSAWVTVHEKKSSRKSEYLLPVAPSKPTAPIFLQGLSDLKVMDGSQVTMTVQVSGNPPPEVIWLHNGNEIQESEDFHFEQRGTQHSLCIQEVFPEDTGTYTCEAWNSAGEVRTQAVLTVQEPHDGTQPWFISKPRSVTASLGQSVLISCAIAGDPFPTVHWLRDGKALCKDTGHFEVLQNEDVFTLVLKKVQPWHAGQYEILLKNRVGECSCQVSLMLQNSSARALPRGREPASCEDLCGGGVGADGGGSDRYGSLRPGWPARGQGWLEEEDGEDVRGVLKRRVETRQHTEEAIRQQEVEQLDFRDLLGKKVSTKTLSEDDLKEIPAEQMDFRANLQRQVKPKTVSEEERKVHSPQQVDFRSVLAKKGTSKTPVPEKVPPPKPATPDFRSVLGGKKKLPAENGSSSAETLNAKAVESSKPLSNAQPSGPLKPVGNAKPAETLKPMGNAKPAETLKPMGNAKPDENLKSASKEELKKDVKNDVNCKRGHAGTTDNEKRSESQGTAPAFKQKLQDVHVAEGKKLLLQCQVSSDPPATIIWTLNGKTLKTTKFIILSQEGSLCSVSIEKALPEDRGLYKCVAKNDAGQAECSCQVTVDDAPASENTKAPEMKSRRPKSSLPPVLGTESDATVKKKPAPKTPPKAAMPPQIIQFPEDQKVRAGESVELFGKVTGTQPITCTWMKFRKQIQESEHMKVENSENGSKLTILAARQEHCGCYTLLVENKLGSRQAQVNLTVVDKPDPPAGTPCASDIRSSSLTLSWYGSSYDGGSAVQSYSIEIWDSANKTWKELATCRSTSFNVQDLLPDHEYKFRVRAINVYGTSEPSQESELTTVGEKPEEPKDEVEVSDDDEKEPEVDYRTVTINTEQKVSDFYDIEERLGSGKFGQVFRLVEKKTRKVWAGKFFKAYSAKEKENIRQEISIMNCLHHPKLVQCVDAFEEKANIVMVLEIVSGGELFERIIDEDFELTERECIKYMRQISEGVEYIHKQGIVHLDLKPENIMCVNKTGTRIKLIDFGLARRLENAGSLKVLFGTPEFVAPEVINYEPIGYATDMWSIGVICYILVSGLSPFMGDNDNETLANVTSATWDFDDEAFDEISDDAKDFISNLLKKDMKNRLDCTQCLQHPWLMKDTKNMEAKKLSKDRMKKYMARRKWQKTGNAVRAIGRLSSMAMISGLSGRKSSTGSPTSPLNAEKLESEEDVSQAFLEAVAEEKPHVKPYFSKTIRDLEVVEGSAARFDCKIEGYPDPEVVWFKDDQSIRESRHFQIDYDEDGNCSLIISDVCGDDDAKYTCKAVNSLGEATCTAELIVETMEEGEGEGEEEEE
The target in experiment [5] is T3, Discoidin domain-containing receptor 2 (Homo sapiens, UniProt Q16832).
T3 sequence (Q16832 whole entry): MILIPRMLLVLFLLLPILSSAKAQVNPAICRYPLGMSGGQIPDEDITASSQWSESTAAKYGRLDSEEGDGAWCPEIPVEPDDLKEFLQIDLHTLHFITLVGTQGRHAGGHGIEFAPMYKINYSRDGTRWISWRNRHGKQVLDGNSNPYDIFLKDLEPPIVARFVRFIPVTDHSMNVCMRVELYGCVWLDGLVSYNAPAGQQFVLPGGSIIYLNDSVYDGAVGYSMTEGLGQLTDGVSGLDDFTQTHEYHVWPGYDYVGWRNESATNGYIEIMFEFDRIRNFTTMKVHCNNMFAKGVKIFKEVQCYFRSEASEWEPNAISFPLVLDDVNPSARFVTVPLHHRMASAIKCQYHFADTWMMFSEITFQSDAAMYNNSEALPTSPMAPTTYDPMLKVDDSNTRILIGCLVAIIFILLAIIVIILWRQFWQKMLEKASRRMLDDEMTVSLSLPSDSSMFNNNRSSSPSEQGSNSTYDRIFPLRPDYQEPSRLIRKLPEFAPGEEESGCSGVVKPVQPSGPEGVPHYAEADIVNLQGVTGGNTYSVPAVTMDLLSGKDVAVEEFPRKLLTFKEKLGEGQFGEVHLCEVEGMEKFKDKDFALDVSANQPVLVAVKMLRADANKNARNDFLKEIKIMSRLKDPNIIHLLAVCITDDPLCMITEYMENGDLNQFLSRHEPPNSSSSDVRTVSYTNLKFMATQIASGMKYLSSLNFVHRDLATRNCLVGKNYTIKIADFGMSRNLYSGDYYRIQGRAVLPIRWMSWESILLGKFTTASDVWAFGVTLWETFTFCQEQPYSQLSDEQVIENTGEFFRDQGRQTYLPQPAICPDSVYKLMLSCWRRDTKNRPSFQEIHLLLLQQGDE

Experiment [6] has as its target Epithelial discoidin domain-containing receptor 1 (Homo sapiens, UniProt Q08345).
Experiment [7] has as its target T4, Probable ATP-dependent RNA helicase DDX6 (Homo sapiens, UniProt P26196).
T4 sequence (P26196 whole entry): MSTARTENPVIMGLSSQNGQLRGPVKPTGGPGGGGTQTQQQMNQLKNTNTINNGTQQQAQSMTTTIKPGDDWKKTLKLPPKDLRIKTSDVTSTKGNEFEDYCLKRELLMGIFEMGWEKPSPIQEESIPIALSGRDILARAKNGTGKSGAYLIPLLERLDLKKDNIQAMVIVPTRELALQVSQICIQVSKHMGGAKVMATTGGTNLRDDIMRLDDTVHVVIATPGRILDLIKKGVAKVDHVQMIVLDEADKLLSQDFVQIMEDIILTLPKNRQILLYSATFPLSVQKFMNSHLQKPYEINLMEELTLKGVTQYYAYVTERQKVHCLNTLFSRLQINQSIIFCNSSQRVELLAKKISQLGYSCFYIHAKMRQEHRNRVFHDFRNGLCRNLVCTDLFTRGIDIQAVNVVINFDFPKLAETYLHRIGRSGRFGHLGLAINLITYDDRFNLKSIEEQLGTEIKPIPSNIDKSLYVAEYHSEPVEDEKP
Also: in the data inactive means no Kd found up to 30 µM.

Chain of Epidermal growth factor receptor (P00533 whole entry): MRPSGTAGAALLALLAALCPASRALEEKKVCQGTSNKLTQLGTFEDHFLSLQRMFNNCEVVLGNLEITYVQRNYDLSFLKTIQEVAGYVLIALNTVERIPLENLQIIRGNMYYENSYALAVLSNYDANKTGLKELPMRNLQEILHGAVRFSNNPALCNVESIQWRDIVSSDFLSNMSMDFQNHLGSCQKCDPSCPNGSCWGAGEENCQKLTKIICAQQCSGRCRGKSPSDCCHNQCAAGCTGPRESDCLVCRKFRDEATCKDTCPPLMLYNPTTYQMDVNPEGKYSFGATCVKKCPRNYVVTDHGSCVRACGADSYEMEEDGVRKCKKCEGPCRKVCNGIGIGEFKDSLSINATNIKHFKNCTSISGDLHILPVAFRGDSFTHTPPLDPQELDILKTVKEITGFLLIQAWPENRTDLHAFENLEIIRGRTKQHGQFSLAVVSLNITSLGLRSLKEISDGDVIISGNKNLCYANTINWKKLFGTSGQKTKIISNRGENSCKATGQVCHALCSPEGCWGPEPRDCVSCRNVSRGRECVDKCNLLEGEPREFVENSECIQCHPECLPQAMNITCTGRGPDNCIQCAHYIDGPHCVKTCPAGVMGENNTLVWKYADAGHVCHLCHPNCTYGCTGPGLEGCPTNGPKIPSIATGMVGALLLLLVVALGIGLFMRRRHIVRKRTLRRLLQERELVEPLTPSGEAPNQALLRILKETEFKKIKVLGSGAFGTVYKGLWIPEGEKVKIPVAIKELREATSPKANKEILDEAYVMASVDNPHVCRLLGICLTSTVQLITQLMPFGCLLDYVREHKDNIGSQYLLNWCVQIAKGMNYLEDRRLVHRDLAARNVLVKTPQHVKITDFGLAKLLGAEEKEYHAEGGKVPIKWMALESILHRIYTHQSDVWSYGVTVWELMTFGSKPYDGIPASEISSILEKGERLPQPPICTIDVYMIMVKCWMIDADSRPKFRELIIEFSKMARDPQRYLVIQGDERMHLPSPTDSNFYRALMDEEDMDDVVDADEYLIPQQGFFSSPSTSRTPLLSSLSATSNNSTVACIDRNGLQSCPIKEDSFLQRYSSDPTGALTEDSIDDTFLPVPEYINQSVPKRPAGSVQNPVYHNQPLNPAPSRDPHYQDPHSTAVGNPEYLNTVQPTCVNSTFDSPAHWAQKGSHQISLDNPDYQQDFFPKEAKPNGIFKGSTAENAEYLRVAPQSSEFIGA
Chain of Epithelial discoidin domain-containing receptor 1 (Q08345 whole entry, the tested form may be a part): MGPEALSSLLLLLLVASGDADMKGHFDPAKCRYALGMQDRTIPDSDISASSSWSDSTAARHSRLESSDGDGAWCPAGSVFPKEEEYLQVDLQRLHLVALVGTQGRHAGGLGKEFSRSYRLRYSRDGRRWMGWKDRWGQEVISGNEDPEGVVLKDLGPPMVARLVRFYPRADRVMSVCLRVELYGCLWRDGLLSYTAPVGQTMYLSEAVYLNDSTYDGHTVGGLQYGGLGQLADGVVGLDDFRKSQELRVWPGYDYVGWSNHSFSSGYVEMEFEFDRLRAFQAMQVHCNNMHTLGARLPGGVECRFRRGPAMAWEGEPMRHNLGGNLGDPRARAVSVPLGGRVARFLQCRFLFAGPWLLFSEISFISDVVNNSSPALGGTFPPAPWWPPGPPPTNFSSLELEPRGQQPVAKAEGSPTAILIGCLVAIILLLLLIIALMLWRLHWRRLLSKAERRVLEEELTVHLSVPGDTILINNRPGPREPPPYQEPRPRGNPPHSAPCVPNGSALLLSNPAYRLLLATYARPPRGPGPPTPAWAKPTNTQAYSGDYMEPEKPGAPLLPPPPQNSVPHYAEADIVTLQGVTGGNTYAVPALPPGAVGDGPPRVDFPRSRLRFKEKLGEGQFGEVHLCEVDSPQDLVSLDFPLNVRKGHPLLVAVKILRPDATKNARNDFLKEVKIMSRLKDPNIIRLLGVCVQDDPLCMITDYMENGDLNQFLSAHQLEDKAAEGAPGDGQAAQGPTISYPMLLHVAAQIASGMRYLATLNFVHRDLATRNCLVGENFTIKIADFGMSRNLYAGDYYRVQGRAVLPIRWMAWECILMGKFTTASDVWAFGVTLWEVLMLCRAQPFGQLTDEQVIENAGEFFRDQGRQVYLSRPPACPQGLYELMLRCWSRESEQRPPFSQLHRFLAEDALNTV

What is called Kd is the equilibrium constant for the complex coming apart. As to `CO[C@H]1C[C@@H]2CC[C@@H](C)[C@@](O)(O2)C(=O)C(=O)N2CCCC[C@H]2C(=O)O[C@H]([C@H](C)C[C@@H]2CC[C@@H](OP(C)(C)=O)[C@H](OC)C2)CC(=O)[C@H](C)/C=C(\C)[C@@H](O)[C@@H](OC)C(=O)[C@H](C)C[C@H](C)/C=C/C=C/C=C/1C` [RIDAFOROLIMUS], the Kd in experiment [1], in experiment [2], in experiment [3], in experiment [4], in experiment [5] and in experiment [6] was > 30 µM (inactive) each time. The Kd in experiment [7] is > 30 µM (inactive).
On to `N#CC1(c2ccc(NC(=O)c3cccnc3NCc3ccncc3)cc2)CCCC1` [RIVOCERANIB], for which the Kd in experiment [1], in experiment [2], in experiment [3], in experiment [4], in experiment [5] and in experiment [6] was > 30 µM (inactive) each time. Further, the Kd in experiment [7] is > 30 µM (inactive).
As to `O=c1[nH]ccc2cc(OC3CCNCC3)ccc12` [SAR-407899 FREE BASE], the Kd in experiment [1], in experiment [2], in experiment [3], in experiment [4], in experiment [5] and in experiment [6] was > 30 µM (inactive) in each case. Further, in experiment [7], the Kd is > 30 µM (inactive).
For the compound `Cn1cc(-c2cnn3c(N)c(Br)c([C@@H]4CCCNC4)nc23)cn1` [SCH-900776], the Kd in experiment [1], in experiment [2], in experiment [3], in experiment [4], in experiment [5] and in experiment [6] was > 30 µM (inactive) in each case. The Kd in experiment [7] was > 30 µM (inactive).
In the case of `CO[C@H]1C[C@@H]2CC[C@@H](C)[C@@](O)(O2)C(=O)C(=O)N2CCCC[C@H]2C(=O)O[C@H]([C@H](C)C[C@@H]2CC[C@@H](O)[C@H](OC)C2)CC(=O)[C@H](C)/C=C(\C)[C@@H](O)[C@@H](OC)C(=O)[C@H](C)C[C@H](C)/C=C/C=C/C=C/1C` [SIROLIMUS], the Kd in experiment [1], in experiment [2], in experiment [3], in experiment [4], in experiment [5] and in experiment [6] was > 30 µM (inactive) each time. Moreover, in experiment [7], the Kd was > 30 µM (inactive).
As for `CO[C@H]1C[C@@H]2CC[C@@H](C)[C@@](O)(O2)C(=O)C(=O)N2CCCC[C@H]2C(=O)O[C@H]([C@H](C)C[C@@H]2CC[C@@H](OC(=O)C(C)(CO)CO)[C@H](OC)C2)CC(=O)[C@H](C)/C=C(\C)[C@@H](O)[C@@H](OC)C(=O)[C@H](C)C[C@H](C)/C=C/C=C/C=C/1C` [TEMSIROLIMUS], the Kd in experiment [1], in experiment [2], in experiment [3], in experiment [4], in experiment [5] and in experiment [6] was > 30 µM (inactive) throughout. Further, the Kd in experiment [7] is > 30 µM (inactive).
`COc1cc2c(Nc3ccc(Cl)c(Cl)c3F)ncnc2cc1OC[C@@H]1C[C@@H]2CN(C)C[C@@H]2C1` [TESEVATINIB]: the Kd in experiment [1] was 0.038 µM (active); in experiment [2], > 30 µM (inactive); in experiment [3], > 30 µM (inactive); in experiment [4] it was > 30 µM (inactive); in experiment [5] it was 1.52 µM (active); in experiment [6] it was 0.073 µM (active). Moreover, the Kd in experiment [7] is > 30 µM (inactive).
For `O=C(Cc1ccc(-c2ccc(OCCN3CCOCC3)cc2)cn1)NCc1ccccc1` [TIRBANIBULIN], the Kd in experiment [1], in experiment [2], in experiment [3], in experiment [4], in experiment [5] and in experiment [6] was > 30 µM (inactive) throughout. Moreover, the Kd in experiment [7] was > 30 µM (inactive).
Turning to `O=C1NC(=O)[C@@H](c2cn3c4c(cccc24)CCC3)[C@@H]1c1c[nH]c2ccccc12` [TIVANTINIB], the Kd in experiment [1], in experiment [2], in experiment [3], in experiment [4], in experiment [5] and in experiment [6] was > 30 µM (inactive) each time. Moreover, in experiment [7], the Kd was > 30 µM (inactive).
Regarding `Cc1cc(Nc2ncnc3ccc(NC4=NC(C)(C)CO4)cc23)ccc1Oc1ccn2ncnc2c1` [TUCATINIB], the dissociation constant Kd was 2.53 µM (active) in experiment [1]; > 30 µM (inactive) in experiment [2]; > 30 µM (inactive) in experiment [3]; > 30 µM (inactive) in experiment [4]; > 30 µM (inactive) in experiment [5]; > 30 µM (inactive) in experiment [6]. The Kd in experiment [7] is > 30 µM (inactive).
`Cn1ncc(Cl)c1-c1cc(C(=O)N[C@H](CN)Cc2ccc(F)c(F)c2)oc1Cl` [UPROSERTIB]: the Kd in experiment [1], in experiment [2], in experiment [3], in experiment [4], in experiment [5] and in experiment [6] was > 30 µM (inactive) throughout. The Kd in experiment [7] was > 30 µM (inactive).
On to `C[C@@H](N)c1ccc(C(=O)Nc2ccnc3[nH]ccc23)cc1` [Y-39983], for which the Kd in experiment [1], in experiment [2], in experiment [3], in experiment [4], in experiment [5] and in experiment [6] was > 30 µM (inactive) each time. The Kd in experiment [7] is > 30 µM (inactive).
With `CN1C/C=C/CCOc2cccc(c2)-c2ccnc(n2)Nc2cccc(c2)C1` [ZOTIRACICLIB], the dissociation constant Kd was 79.9 µM in experiment [1]; > 30 µM (inactive) in experiment [2]; > 30 µM (inactive) in experiment [3]; > 30 µM (inactive) in experiment [4]; > 30 µM (inactive) in experiment [5]; > 30 µM (inactive) in experiment [6]. Moreover, the Kd in experiment [7] is > 30 µM (inactive).
